Reference: ChEMBL document CHEMBL1141324, “Saponins from the roots of Nylandtia spinosa” (J Nat Prod, 2007)
Values after ≈ are worked out from the molar mass of the structure shown.

How the values were obtained:
HCT-116 = test: Cytotoxicity against human HCT116 cells by MTT assay; type: functional, cell-based
HT-29 = test: Cytotoxicity against human HT29 cells by MTT assay; type: functional, cell-based

SMILES | IC50 (HCT-116) | IC50 (HT-29)
C[C@@H]1O[C@H](OC(=O)[C@]23CCC(C)(C)CC2C2=CCC4[C@@]5(C)C[C@H](O)[C@H](O[C@@H]6O[C@H](CO)[C@@H](O)[C@H](O)[C@H]6O)[C@@](C)(C(=O)O)[C@@H]5CC[C@@]4(C)[C@]2(CO)CC3)[C@@H](O[C@H]2O[C@H](C)[C@@H](O[C@@H]3OC[C@@H](O[C@@H]4OC[C@](O)(CO)[C@H]4O)[C@H](O)[C@H]3O[C@H]3O[C@@H](CO)[C@@H](O)[C@@H](O)[C@@H]3O)[C@H](O)[C@@H]2O)[C@H](O)[C@@H]1O (stereo not given in full) | > 5 µg/mL | > 5 µg/mL
C[C@@H]1O[C@H](OC(=O)[C@]23CCC(C)(C)CC2C2=CCC4[C@@]5(C)C[C@H](O)[C@H](O[C@@H]6O[C@H](CO)[C@@H](O)[C@H](O)[C@H]6O)[C@@](C)(C(=O)O)[C@@H]5CC[C@@]4(C)[C@]2(CO)CC3)[C@@H](O[C@H]2O[C@H](C)[C@@H](O[C@@H]3OC[C@@H](O[C@@H]4O[C@H](CO)[C@H](O)[C@H](O)[C@H]4O)[C@H](O[C@@H]4OC[C@H](O)[C@H](O)[C@H]4O)[C@H]3O)[C@H](O)[C@@H]2O)[C@H](O)[C@@H]1O (stereo not given in full) | > 5 µg/mL | > 5 µg/mL
C[C@@H]1O[C@H](OC(=O)[C@]23CCC(C)(C)CC2C2=CCC4[C@@]5(C)C[C@H](O)[C@H](O[C@@H]6O[C@H](CO)[C@@H](O)[C@H](O)[C@H]6O)[C@@](C)(C(=O)O)[C@@H]5CC[C@@]4(C)[C@]2(CO)CC3)[C@@H](O[C@H]2O[C@H](C)[C@@H](O[C@@H]3OC[C@@H](O)[C@H](O[C@@H]4OC[C@](O)(CO)[C@H]4O)[C@H]3O)[C@H](O)[C@@H]2O)[C@H](O)[C@@H]1O (stereo not given in full) | > 5 µg/mL | > 5 µg/mL
C[C@@H]1O[C@H](OC(=O)[C@]23CCC(C)(C)CC2C2=CCC4[C@@]5(C)C[C@H](O)[C@H](O[C@@H]6O[C@H](CO)[C@@H](O)[C@H](O)[C@H]6O)[C@@](C)(C(=O)O)[C@@H]5CC[C@@]4(C)[C@]2(CO)CC3)[C@@H](O[C@H]2O[C@H](C)[C@@H](O[C@@H]3OC[C@@H](O[C@@H]4O[C@H](CO)[C@H](O)[C@H](O)[C@H]4O)[C@H](O[C@@H]4OC[C@H](O)[C@H](O)[C@H]4O)[C@H]3O)[C@H](O[C@@H]3OC[C@](O)(CO)[C@H]3O)[C@@H]2O)[C@H](O)[C@@H]1O (stereo not given in full) | > 5 µg/mL | > 5 µg/mL
CC(=O)O[C@H]1C(=O)[C@@]2(C)[C@H]([C@H](OC(=O)c3ccccc3)[C@]3(O)C[C@H](OC(=O)[C@H](O)[C@@H](NC(=O)c4ccccc4)c4ccccc4)C(C)=C1C3(C)C)[C@]1(OC(C)=O)CO[C@@H]1C[C@@H]2O [PACLITAXEL] | 0.008 µg/mL (≈ 0.00937 µM) | 0.0053 µg/mL (≈ 0.00621 µM)
